Assay results: the NIST ThermoML archive (doi:10.1016/j.jct.2015.09.020)
± gives the expanded uncertainty stated by the source.

Columns and labels:
[1] = 278.15 K, 101.3 kPa, Liquid
[2] = mn = molality of the nth substance listed, in mol/kg; details: 278.15 K, 101.3 kPa, Liquid, m2 = 0; for speed of sound: Frequency=2 MHz, Linear variable-path acoustic interferometer; for mass density: Pycnometric method

Compound | speed of sound ([1]; Frequency=2 MHz, Linear variable-path acoustic interferometer) | mass density ([1]; Pycnometric method) | speed of sound [2] | mass density [2]
O [water] | 1426.2 ± 1.7 m/s | 999.96 ± 0.28 kg/m3 |  | 
O [water] + Cl.NCC(=O)O |  |  | 1426.2 ± 1.7 m/s | 999.96 ± 0.28 kg/m3
O [water] + NCCCC(=O)O |  |  | 1426.2 ± 1.7 m/s | 999.96 ± 0.28 kg/m3
O [water] + N[C@@H](CCC(=O)[O-])C(=O)O.[Na+] |  |  | 1426.2 ± 1.7 m/s | 999.96 ± 0.29 kg/m3
